Test results published in US20090098529A1 (priority 2006, published 2009).

Tested on: GI-101A tumors
Design: species or system nude mice
Conditions: mouse, in vivo

SMILES	Effect on tumor growth
N.N.[Cl][Pt][Cl] [Cisplatin, cis-diamminedichloroplatinum]	decreased the rate of tumor growth, but did not shrink tumors
COc1cccc2c1C(=O)c1c(O)c3c(c(O)c1C2=O)C[C@@](O)(C(=O)CO)C[C@@H]3O[C@H]1C[C@H](N)[C@H](O)[C@H](C)O1 [Doxorubicin, doxorubicin]	did not have any effect on the rate of tumor growth
